± gives the expanded uncertainty stated by the source.
Tests used:
[1] = 298.15 K, Liquid; for viscosity: Capillary tube (Ostwald / Ubbelohde) method
[2] = 298.15 K; 101.7 kPa; Liquid mixture 1; Pendant drop shape

Cc1ccccc1 [toluene]
viscosity ([1]; 101 kPa): 0.554 ± 0.04 mPa·s | mass density ([1]; 101.7 kPa, Vibrating tube method): 860.8 ± 2 kg/m3

O [water]
viscosity ([1]; 101.7 kPa): 0.8958 ± 0.041 mPa·s

Cc1ccccc1 [toluene] + O
interfacial tension [2]: 36.2 ± 3.6 mN/m
